Experimental data: publication PMC9945734 (BMC Medicine, 2023)
Where “and” joins values, the source holds several entries; their conditions need not be identical. Identical values can stand only once.

Tested on: PC-3-KQ and PC-3-KR cells
Assay: RNA-sequencing and differential gene expression
Assay type: cell-based, human
Set-up: CEP19 tpm_KQ_NTZ / CCNA1 tpm_KQ_NTZ / BTN3A3 tpm_KQ_NTZ / CAPSL tpm_KQ_NTZ / CELF3 tpm_KQ_NTZ / C5orf63 tpm_KQ_NTZ / tpm MSMP / tpm MYH7B / tpm CACNG8 / CNTNAP3B tpm_KQ_NTZ / IL21R tpm_KQ_NTZ / CYP8B1 tpm_KQ_NTZ / C2orf78 tpm_KQ_NTZ / CALB1 tpm_KQ_NTZ / COL4A3 tpm_KQ_NTZ / CFB tpm_KQ_NTZ / PFKFB1 tpm_KQ_NTZ / BTBD11 tpm_KQ_NTZ: scale not given here
[1] = PC-3-KQ cells with NTZ, RNA-Seq, replicates 1-3, listed as NTZ
[2] = PC-3-KQ cells with NTZ, RNA-Seq, replicates NTZ1-3, listed as NTZ

## CC(=O)Oc1ccccc1C(=O)Nc1ncc([N+](=O)[O-])s1 [Nitazoxanide]
5 μM, 48 h
  reversed genes that were downregulated by KLF5^K369Q: 114 genes
  reversed genes that were upregulated by KLF5^K369Q: 127 genes
5 μM, 48 h, of 2836 differentially expressed genes
  differentially expressed genes whose KLF5^K369Q-modulated expression patterns were reversed: 241 genes
[1]
  BTBD11 tpm_KQ_NTZ: 0.02343 (2×) and -0.3135
  BTN3A3 tpm_KQ_NTZ: 0.1048 and 0.06849 and 0.4183
  C2orf78 tpm_KQ_NTZ: -0.1653 (2×) and -0.2557
  C5orf63 tpm_KQ_NTZ: -1.246 and -0.6828 (2×)
  CALB1 tpm_KQ_NTZ: -0.5505 and -0.5318 and -0.6014
  CAPSL tpm_KQ_NTZ: 0.1399 and 0.07957 and 0.02817
  CCNA1 tpm_KQ_NTZ: 0.2896 and 0.0474 and -0.0329
  CELF3 tpm_KQ_NTZ: -0.6626 and -0.09641 and -1.398
  CEP19 tpm_KQ_NTZ: -0.2178 and -0.1674 and -0.2603
  CFB tpm_KQ_NTZ: 1.072 and 0.8732 and 1.006
  CNTNAP3B tpm_KQ_NTZ: -1.003 and -0.7486 and -1.333
  COL4A3 tpm_KQ_NTZ: 0.8606 and -0.008515 and 0.09381
  CSF1R tpm_KQ_NTZ: -0.4278 and 0.5782 and -0.287
  CSF3 tpm_KQ_NTZ: -0.1666 and -0.05545 and -0.03443
  CYP8B1 tpm_KQ_NTZ: 0.5351 and -0.06455 and 0.239
  CYSTM1 tpm_KQ_NTZ: 0.5286 and 0.6762 and 0.7083
  DEPTOR tpm_KQ_NTZ: -0.1625 and 0.109 and -0.5598
  DISP1 tpm_KQ_NTZ: 0.9822 and -0.1345 and 0.01324
  DMC1 tpm_KQ_NTZ: 0.2859 and -0.2731 and -0.5992
  EFCAB6 tpm_KQ_NTZ: -0.1794 and -0.1071 (2×)
  ESPN tpm_KQ_NTZ: 0.1813 and 0.02389 and 0.09131
  FA2H tpm_KQ_NTZ: 0.4488 and 0.5616 and 0.5267
  FAM43A tpm_KQ_NTZ: 0.03072 and -0.121 and -0.09259
  FAM83D tpm_KQ_NTZ: -0.5519 and -0.6015 and -0.7989
  FAM178B tpm_KQ_NTZ: 0.08123 and 0.3901 and 0.3146
  FANCI tpm_KQ_NTZ: -0.4967 and -0.5797 and -1.118
  FANCL tpm_KQ_NTZ: -0.04507 and -0.1672 and -0.6878
  FIBCD1 tpm_KQ_NTZ: 0.8945 (2×) and 0.4936
  FLI1 tpm_KQ_NTZ: 0.163 and 0.09153 and 0.3476
  FLRT1 tpm_KQ_NTZ: 0.02501 and 0.1658 and 0.1094
  FOXI1 tpm_KQ_NTZ: -0.2315 and -0.3686 and -0.4151
  FOXP3 tpm_KQ_NTZ: -0.3022 and -0.9252 and -0.8607
  FRY tpm_KQ_NTZ: 0.3424 and 1.196 and 0.3898
  FUT3 tpm_KQ_NTZ: 0.2065 and 0.1078 and 0.1213
  FZD4 tpm_KQ_NTZ: -0.8248 and -0.9863 and -1.191
  GBX2 tpm_KQ_NTZ: 0.2922 and 0.1832 and -0.01058
  GCNT3 tpm_KQ_NTZ: 0.5624 and 1.46 and 1.425
  GDPD3 tpm_KQ_NTZ: 0.1549 and 0.8212 and 1.086
  GPR19 tpm_KQ_NTZ: -0.4052 and -1.088 and -0.1444
  H3C1 tpm_KQ_NTZ: -0.4909 and -0.7381 and -0.1713
  HAS3 tpm_KQ_NTZ: -0.7244 and -1.045 and -1.209
  HSD3B1 tpm_KQ_NTZ: 0.4147 and -0.0829 and 0.06266
  HSPB8 tpm_KQ_NTZ: 1.202 and 1.163 and 1.373
  IFITM10 tpm_KQ_NTZ: 0.594 and 0.6249 and 1.26
  IGF2BP1 tpm_KQ_NTZ: -0.6156 and 0.2139 and -0.1353
  IGFBP4 tpm_KQ_NTZ: -0.9714 and -1.052 and -1.107
  IGSF23 tpm_KQ_NTZ: 0.2138 and -0.14 and 0.153
  IL1RN tpm_KQ_NTZ: 0.4172 and 0.5103 and 0.3837
  IL21R tpm_KQ_NTZ: 0.1341 and 0.3531 and -0.6262
  IL32 tpm_KQ_NTZ: 0.1915 and 0.128 and 0.2784
  IL36RN tpm_KQ_NTZ: 0.2015 and -0.02405 and -0.08881
  KDELR2 tpm_KQ_NTZ: 0.386 and 0.3336 and 0.3028
  KIAA0319 tpm_KQ_NTZ: 0.8897 and 0.7646 and 0.5228
  KLK9 tpm_KQ_NTZ: -0.2259 and -0.6416 and -0.6693
  KRT17 tpm_KQ_NTZ: -0.1797 and -0.2377 and -0.2552
  LGALS12 tpm_KQ_NTZ: -0.7737 and -0.7092 and -1.317
  LILRB3 tpm_KQ_NTZ: -0.849 and 0.2071 and -0.3616
  LOC105373989 tpm_KQ_NTZ: 0.1747 and 0.1405 and -0.01628
  LOC107985532 tpm_KQ_NTZ: -0.4716 and -1.399 and -0.5849
  LRRK1 tpm_KQ_NTZ: 0.2201 and 0.2241 and -0.1686
  LTB tpm_KQ_NTZ: 0.298 and 0.1911 and 0.1215
  LY6K tpm_KQ_NTZ: 0.361 and 0.2663 and 0.3215
  MAP2 tpm_KQ_NTZ: 1.038 and 0.7956 and 0.3906
  MCM4 tpm_KQ_NTZ: -0.8715 and -0.9161 and -1.036
  METRNL tpm_KQ_NTZ: -0.141 and -0.421 and -0.3102
  MFSD2A tpm_KQ_NTZ: 0.8546 and 0.3607 and 0.5375
  MMP9 tpm_KQ_NTZ: 0.4129 and 0.2062 and 0.3482
  MNX1 tpm_KQ_NTZ: 0.2275 and -0.9 and 0.1118
  MROH8 tpm_KQ_NTZ: -1.87 and -0.2315 and 0.3664
  MVP tpm_KQ_NTZ: 0.5977 and 0.4827 and 0.3544
  MYBL2 tpm_KQ_NTZ: -0.1727 and -0.165 and -0.155
  NAV1 tpm_KQ_NTZ: 0.9647 (2×) and 0.5494
  NECTIN4 tpm_KQ_NTZ: 1.229 and 1.239 and 1.198
  NKD1 tpm_KQ_NTZ: 0.09084 and 0.3652 and -0.1886
  NLRC5 tpm_KQ_NTZ: 0.9096 and 0.9955 and 0.3927
  NR4A2 tpm_KQ_NTZ: -0.3921 and 0.001744 and -0.3514
  NRK tpm_KQ_NTZ: -0.02829 and -0.09407 and -0.0544
  NT5E tpm_KQ_NTZ: -0.3117 and -0.2802 and -0.3345
  NTF4 tpm_KQ_NTZ: -0.8704 and -0.4013 and -0.4312
  PADI3 tpm_KQ_NTZ: -0.6957 and -0.9817 and -0.9686
  PCDH18 tpm_KQ_NTZ: -1.061 and -0.1951 and -0.6677
  PDGFA tpm_KQ_NTZ: 0.404 and 0.3967 and 0.4405
  PDZK1 tpm_KQ_NTZ: -0.2414 and 0.3327 and -0.5574
  PEG10 tpm_KQ_NTZ: -0.4908 and -0.6617 and -1.075
  PFKFB1 tpm_KQ_NTZ: 0.1063 and -0.5815 and -0.9802
  PGAM4 tpm_KQ_NTZ: -1.18 and 0.2721 and 0.1017
  PHACTR3 tpm_KQ_NTZ: -0.9821 and -1.045 and -0.9733
  PHOSPHO2 tpm_KQ_NTZ: -0.6941 and -0.4899 and -0.4437
  PIANP tpm_KQ_NTZ: -0.9238 and -0.4554 and -0.5206
  PITPNM3 tpm_KQ_NTZ: 0.8488 and 0.3478 and 1.199
  PKIA tpm_KQ_NTZ: -0.2506 and -0.236 and -0.2863
  PRKAR1B tpm_KQ_NTZ: 0.4324 and 0.4514 and 0.7549
  PRKDC tpm_KQ_NTZ: 0.0232 and -0.08402 and -0.5624
  PROS1 tpm_KQ_NTZ: 0.5403 and 0.6849 and 0.6327
  PRR16 tpm_KQ_NTZ: -0.9713 and 0.1931 and -0.1646
  PRR29 tpm_KQ_NTZ: -0.06306 and -0.3085 and -0.2669
  PTPRR tpm_KQ_NTZ: 0.6595 and 1.295 and 0.9528
  RBL1 tpm_KQ_NTZ: -0.1965 and -0.4796 and -0.579
  RLN1 tpm_KQ_NTZ: -0.3286 and -1.073 and -1.143
  RMDN2 tpm_KQ_NTZ: 0.2344 and 0.5874 and -0.2937
  RND1 tpm_KQ_NTZ: 0.2005 and 0.3255 and 0.6944
  S100A6 tpm_KQ_NTZ: -0.1375 and -0.00541 and 0.1164
  SCG2 tpm_KQ_NTZ: 0.5158 and -0.04635 and -1.114
  SDCBP2 tpm_KQ_NTZ: 0.1173 and 0.1996 and 0.2731
  SERINC5 tpm_KQ_NTZ: 0.7977 and 0.7386 and 0.3271
  SERPINA3 tpm_KQ_NTZ: 0.1383 and 0.1648 and 0.1316
  SERPINB4 tpm_KQ_NTZ: -0.3324 and -0.2205 and -0.9332
  SERPIND1 tpm_KQ_NTZ: -1.101 and -0.7105 and -1.316
  SGK1 tpm_KQ_NTZ: -0.7129 and -0.3809 and -0.4182
  SHISA3 tpm_KQ_NTZ: -0.1615 and -0.01424 and -0.03964
  SLC1A1 tpm_KQ_NTZ: 0.007137 and 0.6447 and 0.4297
  SLC26A9 tpm_KQ_NTZ: -0.2744 and 0.2725 and -0.927
  SLC41A2 tpm_KQ_NTZ: 0.4534 and 0.4303 and 0.4488
  SLC44A4 tpm_KQ_NTZ: 0.5521 and 0.8689 and 0.6934
  SLC45A2 tpm_KQ_NTZ: 0.257 and 0.07385 and 0.3908
  SLITRK5 tpm_KQ_NTZ: 0.1465 and 0.3195 and -0.4377
  SMCO4 tpm_KQ_NTZ: 0.1432 and -0.08242 and 0.08549
  SPOCK2 tpm_KQ_NTZ: 0.7174 and 0.4246 and 1.38
  STK32A tpm_KQ_NTZ: -0.2617 and 0.04669 and 0.4294
  SYN3 tpm_KQ_NTZ: 0.4729 and 0.3702 and 0.1862
  TENM4 tpm_KQ_NTZ: 0.2992 and -0.3092 and -0.102
  TIMM8A tpm_KQ_NTZ: -0.8837 and -0.8279 and -0.9653
  TJP3 tpm_KQ_NTZ: 0.01147 and 0.1369 and 0.1215
  TMEM140 tpm_KQ_NTZ: 0.2484 and 0.4158 and -0.0465
  TMEM269 tpm_KQ_NTZ: 0.406 and 0.06998 and -0.4941
  TMOD1 tpm_KQ_NTZ: 1.342 and 1.235 and 0.499
  TMPRSS2 tpm_KQ_NTZ: 0.007165 (2×) and 0.0842
  TNFAIP8L2-SCNM1 tpm_KQ_NTZ: -0.5467 and -1.562 and 0.4492
  TNFRSF11B tpm_KQ_NTZ: -0.9649 and -1.078 and -1.224
  TSPAN18 tpm_KQ_NTZ: 0.09114 and -0.09342 and 0.05473
  TTC9 tpm_KQ_NTZ: 0.2094 and 0.2356 and 0.6409
  TTC30A tpm_KQ_NTZ: -0.04558 and -0.08793 and -0.6072
  TTC30B tpm_KQ_NTZ: -0.2207 and -0.5797 and -0.3178
  UST tpm_KQ_NTZ: 0.2599 and 0.1194 and -0.01732
  WHRN tpm_KQ_NTZ: 0.9053 and 0.8473 and 0.7758
  WNT4 tpm_KQ_NTZ: 0.9814 and 1.222 and 1.387
  WNT9A tpm_KQ_NTZ: 0.12 and -0.05504 and -0.01608
  ZFPM2 tpm_KQ_NTZ: -0.1773 and -0.1147 and -0.2406
  ZNF596 tpm_KQ_NTZ: -1.141 and -0.2632 and -0.6635
[2]
  tpm ABAT: 1.268 and 0.9682 and 0.237
  tpm ADIRF: -0.4477 and -0.5226 and -0.3352
  tpm ANKRD63: 0.1535 and -0.6652 and 0.3857
  tpm ANXA8: 0.9428 and 0.3454 and -1.083
  tpm ANXA8L1: -0.298 and -0.4234 and -0.7464
  tpm ARG2: 1.137 and 1.333 and 1.316
  tpm ATP2A3: 0.8036 (2×) and -0.2131
  tpm C11orf65: -1.057 and -0.2742 and -0.729
  tpm CACNG8: -0.5252 and -0.3048 and -0.9129
  tpm CAPN12: 0.129 and 0.1138 (2×)
  tpm CD14: -1.105 and -0.7008
  tpm CGB5: 0.9167 and 0.2487 and 0.1354
  tpm CHPF2: 1.06 and 0.6508 and 0.6663
  tpm COL4A4: 0.03123 and -0.5371 and -0.2214
  tpm COL4A6: -0.1711 and -0.6593 and -0.6324
  tpm CXCL5: -0.4877 and -0.4195 and -0.4771
  tpm CYP1B1: 0.6593 and 0.4159 and 0.0748
  tpm CYP2E1: 0.3931 and 0.8042 and 0.2474
